This note sets out measurements from US20250129012A1, “ANTI-INFLAMMATORY AND ANALGESIC COMPOUNDS AND USE THEREOF” (JIANGSU ATOM BIOSCIENCE AND PHARMACEUTICAL CO., LTD., priority 2021, published 2025).

Where two headings read alike, the source gives them in different places. Marks after values point to notes of the source that are not given here.

For assay [1], the system named is gouty arthritis rats (sodium urate, right ankle and knee joint cavities). Nature of the assay: Pharmacodynamics experiment B on gouty arthritis rats: gait score. The assay is classed as in vivo, SD rats. Conditions: for Gait Score: dose 0.6 mg/kg gavage, mean; for Gait versus model group, in words: compounds 0.6 mg/kg, colchicine 0.6 and 1.2 mg/kg. The protocol:
(§1) Compounds 12, 16, 19, 30, 34, 36, 38, 40, 44, 48, 49, 52, 58, 69, 83, 98, 102, 119, 121, and 122 were prepared by grinding with 0.5% CMC-Na prior to administration and formulated into suspensions of appropriate concentration (0.12 mg/mL) for gavage, with an administered dose of 0.5 mL/100 g.
(§2) 240 SD rats, males, were acclimatized for one week and weighed 180-220 g. […] The dose of each compound group was 0.6 mg/kg. The compounds in each group were prepared into the corresponding concentration suspension, and the volume of administration was 10 mL/kg.
(§3) 250 mg of sodium urate were added to 9 mL of saline, and 1 mL of Tween-80 solution was added, the resulting mixture was heated and stirred to formulate 10 mL of sodium urate solution. The rats were grasped and fixed, and 0.2 mL of sodium urate solution was injected into the right ankle and knee joint cavities respectively to establish gouty arthritis rat model.
(§4) Before modeling, positive drug and tested compounds were pre-administered for 7 days, once a day, and modeling was performed on day 8, and drug administration by gavage continued for 3 days after modeling.
Gait was scored according to the modified gait grading criteria introduced by Coderre et al. The gait of each rat was observed before and 2 h, 4 h, 8 h, 10 h, 24 h and 48 h after modeling and graded scoring was performed. The gait grading criteria were as follows: 0 point, normal walking; 1 point, slight lameness, the lower limbs were slightly bent; 2 points: moderate lameness, the lower limbs just touched the ground; 3 points, severe lameness, the lower limbs left the ground, and walked on three feet. The mean score of each group was calculated and compared with that of the model group.
(§5) Each experimental data was expressed as the mean, and intergroup comparisons were examined for significance using the ANOVA-Dunnett T-test, with P<0.05 as the significance indicator.

Assay [2] has the same test system. Nature of the assay: Pharmacodynamics experiment B on gouty arthritis rats: ankle swelling rate. The assay is classed as in vivo, SD rats. Conditions: Rattus norvegicus, po, read-out: Swelling rate (ankle). The protocol:
as §1, §2, §3, §4
Before modeling and 2 h, 4 h, 8 h, 10 h, 24 h and 48 h after modeling, the circumference of the right ankle joint was measured using a soft ruler or the volume change at the ankle was measured (volumetric method), and the swelling degree and swelling rate of ankle joint were calculated:
Swelling degree (mm)=measured circumference (mm)−baseline circumference (mm)
Swelling rate (%)=swelling degree (mm)/baseline circumference (mm)×100%
as §5

Consider `COc1cc2c(c(OC)c1OC)-c1cc(I)c(OC)c(=O)cc1[C@@H](NC(C)=O)CC2` [Compound 12, (S)—N-(11-iodo-1,2,3,10-tetramethoxy-9-oxo-5,6,7,9-tetrahydrobenzo[a]heptalen-7-yl)acetamide], for which the “Gait Score” value in assay [1] (2 h) is reported as 0; in assay [1] (4 h), 0; in assay [1] (8 h), 0*; in assay [1] (10 h), 0*; in assay [1] (24 h), 0; in assay [1] (48 h), 0. In addition, the “Gait versus model group, in words” value in assay [1] is on record as “significant improvement in gait occurred at different time points”. Further, the change in vivo at 0.6 mg/kg in assay [2] (2 h) amounted to 10.8%; in assay [2] (4 h), 16.5%; in assay [2] (8 h), 18.7%; in assay [2] (10 h), 31.4%; in assay [2] (24 h) it was 22.8%; in assay [2] (48 h), 15%.
Take `COc1cc2c(c(OC)c1OC)-c1cc(C)c(OC)c(=O)cc1[C@@H](NC(C)=O)CC2` [Compound 16, (S)—N-(1,2,3,10-tetramethoxy-11-methyl-9-oxo-5,6,7,9-tetrahydrobenzo[a]heptalen-7-yl)acetamide]: the “Gait Score” value in assay [1] (2 h) is 0; in assay [1] (4 h) it was 0.1; in assay [1] (8 h), 0*; in assay [1] (10 h), 0*; in assay [1] (24 h), 0; in assay [1] (48 h) it was 0. In assay [1], the “Gait versus model group, in words” value is “significant improvement in gait occurred at different time points”. Further, the change in vivo at 0.6 mg/kg amounted to 9.71% in assay [2] (2 h); 13% in assay [2] (4 h); 17.8% in assay [2] (8 h); 17.4% in assay [2] (10 h); 18.6% in assay [2] (24 h); 6.17% in assay [2] (48 h).
For the compound `COc1cc2c(c(OC)c1OC)-c1cc(C)c(O[C@H]3CCOC3)c(=O)cc1[C@@H](NC(C)=O)CC2` [Compound 30, N—{(S)-1,2,3-trimethoxy-11-methyl-9-oxo-10-{[(S)-tetrahydrofuran-3-yl]oxy}-5,6,7,9-tetrahydrobenzo[a]heptalen-7-yl}acetamide], the “Gait Score” value in assay [1] (2 h) was 0; in assay [1] (4 h), 0; in assay [1] (8 h), 0*; in assay [1] (10 h) it was 0*; in assay [1] (24 h), 0.3; in assay [1] (48 h) it was 0. In assay [1], the “Gait versus model group, in words” value was “significant improvement in gait occurred at different time points”. The change in vivo at 0.6 mg/kg in assay [2] (2 h) is -4.04%; in assay [2] (4 h), 1.2%; in assay [2] (8 h) it was 0.57%; in assay [2] (10 h) it was 6.69%; in assay [2] (24 h), 9.77%; in assay [2] (48 h), -1.34%.
Take `COc1cc2c(c(OC)c1OC)-c1ccc(OCC(F)(F)F)c(=O)cc1[C@@H](NC(C)=O)CC2` [Compound 36, (S)—N-{1,2,3-trimethoxy-9-oxo-10-(2,2,2-trifluoroethoxy)-5,6,7,9-tetrahydrobenzo[a]heptalen-7-yl}acetamide]: the “Gait Score” value in assay [1] (2 h) is given as 0; in assay [1] (4 h), 0; in assay [1] (8 h), 0*; in assay [1] (10 h) it was 0*; in assay [1] (24 h), 0.2; in assay [1] (48 h), 0.1. Also, the “Gait versus model group, in words” value in assay [1] is reported as “significant improvement in gait occurred at different time points”. The change in vivo at 0.6 mg/kg in assay [2] (2 h) was -3.59%; in assay [2] (4 h), 2.37%; in assay [2] (8 h), 2.62%; in assay [2] (10 h), 10.4%; in assay [2] (24 h), 10%; in assay [2] (48 h) it was -2.54%.
On to `COC(=O)c1cc2c(cc(=O)c1OC)[C@@H](NC(C)=O)CCc1cc(OC)c(OC)c(OC)c1-2` [Compound 40, methyl (S)-7-acetamido-1,2,3,10-tetramethoxy-9-oxo-5,6,7,9-tetrahydrobenzo[a]heptalen-11-carboxylate], for which the “Gait Score” value in assay [1] (2 h) is 0; in assay [1] (4 h), 0; in assay [1] (8 h) it was 0*; in assay [1] (10 h) it was 0*; in assay [1] (24 h) it was 0.4; in assay [1] (48 h), 0. Further, the “Gait versus model group, in words” value in assay [1] is recorded as “significant improvement in gait occurred at different time points”. Also, the change in vivo at 0.6 mg/kg was determined as 5.81% in assay [2] (2 h); 7.96% in assay [2] (4 h); 11.2% in assay [2] (8 h); 9.9% in assay [2] (10 h); 21.7% in assay [2] (24 h); 9.33% in assay [2] (48 h).
For `COc1cc2c(c(OC)c1OC)-c1ccc(N3CCCC3=O)c(=O)cc1[C@@H](NC(C)=O)CC2` [Compound 52, (S)—N-[1,2,3-trimethoxy-9-oxo-10-(2-oxo-pyrrolidin-1-yl)-5,6,7,9-tetrahydrobenzo[a]heptalen-7-yl]acetamide], the “Gait Score” value in assay [1] (2 h) is listed as 0; in assay [1] (4 h) it was 0; in assay [1] (8 h) it was 0*; in assay [1] (10 h) it was 0*; in assay [1] (24 h), 0; in assay [1] (48 h) it was 0. Besides, the “Gait versus model group, in words” value in assay [1] was “significant improvement in gait occurred at different time points”. The change in vivo at 0.6 mg/kg came out at 11% in assay [2] (2 h); 9.83% in assay [2] (4 h); 11.8% in assay [2] (8 h); 30.2% in assay [2] (10 h); 22% in assay [2] (24 h); 7.88% in assay [2] (48 h).
Turning to `COc1cc2c(c(OC)c1OC)-c1ccc(C(=O)N3CCOCC3)c(=O)cc1[C@@H](NC(C)=O)CC2` [Compound 83, (S)—N-{1,2,3-trimethoxy-10-(morpholine-4-carbonyl)-9-oxo-5,6,7,9-tetrahydrobenzo[a]heptalen-7-yl}acetamide], the “Gait Score” value in assay [1] (2 h) is given as 0; in assay [1] (4 h) it was 0; in assay [1] (8 h), 0*; in assay [1] (10 h) it was 0*; in assay [1] (24 h) it was 0; in assay [1] (48 h), 0. The “Gait versus model group, in words” value in assay [1] is given as “significant improvement in gait occurred at different time points”. The change in vivo at 0.6 mg/kg is 8.31% in assay [2] (2 h); 10.4% in assay [2] (4 h); 16.6% in assay [2] (8 h); 21.1% in assay [2] (10 h); 26.3% in assay [2] (24 h); 15.3% in assay [2] (48 h).
Take `CNC(=O)c1ccc2c(cc1=O)[C@@H](NC(=O)C1CC1)CCc1cc(OC)c(OC)c(OC)c1-2` [Compound 102, (S)-7-(3-cyclopropylcarbonylamino)-1,2,3-trimethoxy-N-methyl-9-oxo-5,6,7,9-tetrahydrobenzo[a]heptalen-10-carboxamide]: the “Gait Score” value in assay [1] (2 h) is 0; in assay [1] (4 h) it was 0; in assay [1] (8 h) it was 0.27; in assay [1] (10 h), 0.09*; in assay [1] (24 h), 0; in assay [1] (48 h) it was 0. In addition, the change in vivo at 0.6 mg/kg was 14.1% in assay [2] (2 h); 13.6% in assay [2] (4 h); 14.4% in assay [2] (8 h); 19.3% in assay [2] (10 h); 16.7% in assay [2] (24 h); 9.4% in assay [2] (48 h).
